{"source": "patent US6355799B1", "about": "“Substituted benzene compounds, process for their preparation, and herbicidal and defoliant compositions containing them” (ISK Americas Incorporated, priority 1997, dated 2002)", "format_in_all_cases": "in vivo", "key": {"[1]": {"tested_on": "upland rice (Oryza sp., var. Tebonnet, RICE)", "test": "Post-emerge test, crop safety", "conditions": "post-emerge, 14 days after application, rating scale 0-100", "in_short": "(§1)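 Each test used a mechanized track sprayer delivering 187 l/ha of acetone solution at 15–1000 g ai/ha. Post-emerge foliage at 2–3 leaves was treated with added 0.25% v/v non-ionic surfactant and bottom-watered only. Injury was assessed on day 14, where 100 means total kill.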"}, "[2]": {"tested_on": "field corn (Zea mays L., var. Dekalb 535, CORN)", "test": "Post-emerge test, crop safety", "conditions": "post-emerge, 14 days after application, rating scale 0-100", "in_short": "as §1"}, "[3]": {"tested_on": "upland rice (Oryza sp., var. Tebonnet, RICE)", "test": "Pre-emerge test, crop safety", "conditions": "pre-emerge, 14 days after application, rating scale 0-100", "in_short": "(§2)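 Applied at 15–1000 g ai/ha from acetone in 187 l/ha spray volume. Post-emergence applications included 0.25% v/v non-ionic surfactant and reached plants sown 8–21 days before. Pre-emergence applications were incorporated by surface watering. Efficacy or crop damage was rated on a 0–100 scale after 14 days.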"}, "[4]": {"tested_on": "field corn (Zea mays L., var. Dekalb 535, CORN)", "test": "Pre-emerge test, crop safety", "conditions": "pre-emerge, 14 days after application, rating scale 0-100", "in_short": "as §2"}, "[5]": {"tested_on": "large crabgrass (Digitaria sanguinalis, DIGSA)", "test": "Post-emerge test, greenhouse herbicide activity screening", "conditions": "post-emerge, 14 days after application, rating scale 0-100", "in_short": "(§3)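 Herbicidal damage is scored 0 (none) to 100 (complete plant death) two weeks after a simulated field spray. Rates span 15–1000 g ai/ha, delivered in acetone at 187 l/ha. For post-emergence treatments, plants have 2–3 leaves and the spray carries 0.25% v/v non-ionic surfactant.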"}, "[6]": {"tested_on": "redroot pigweed (Amaranthus retroflexus, AMARE)", "test": "Post-emerge test, greenhouse herbicide activity screening", "conditions": "post-emerge, 14 days after application", "in_short": "as §3"}, "[7]": {"tested_on": "velvetleaf (Abutilon theophrasti, ABUTH)", "test": "Post-emerge test, greenhouse herbicide activity screening", "conditions": "post-emerge, 14 days after application, rating scale 0-100", "in_short": "as §3"}, "[8]": {"tested_on": "barnyardgrass (Echinochloa crus-galli, ECHCG)", "test": "Post-emerge test, greenhouse herbicide activity screening", "conditions": "post-emerge, 14 days after application, rating scale 0-100", "in_short": "as §3"}, "[9]": {"tested_on": "sicklepod (Cassia obtusifolia, CASOB)", "test": "Post-emerge test, greenhouse herbicide activity screening", "conditions": "post-emerge, 14 days after application, rating scale 0-100", "in_short": "as §3"}, "[10]": {"tested_on": "ivyleaf morningglory (Ipomoea hederacea, IPOHE)", "test": "Post-emerge test, greenhouse herbicide activity screening", "conditions": "post-emerge, 14 days after application, rating scale 0-100", "in_short": "as §3"}, "[11]": {"tested_on": "johnsongrass (Sorghum halepense, SORHA)", "test": "Post-emerge test, greenhouse herbicide activity screening", "conditions": "post-emerge, 14 days after application, rating scale 0-100", "in_short": "as §3"}, "[12]": {"tested_on": "green foxtail (Setaria viridis, SETVI)", "test": "Post-emerge test, greenhouse herbicide activity screening", "conditions": "post-emerge, 14 days after application, rating scale 0-100", "in_short": "as §3"}, "[13]": {"tested_on": "lambsquarters (Chenopodium album, CHEAL)", "test": "Post-emerge test, greenhouse herbicide activity screening", "conditions": "post-emerge, 14 days after application, rating scale 0-100", "in_short": "as §3"}, "[14]": {"tested_on": "large crabgrass (Digitaria sanguinalis, DIGSA)", "test": "Pre-emerge test, greenhouse herbicide activity screening", "conditions": "pre-emerge, 14 days after application, rating scale 0-100", "in_short": "(§4)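 Plants grown in 10 cm pots of sandy loam mix received acetone-dissolved compounds through a moving flat-fan nozzle. Doses ranged from 15 to 1000 g ai/ha. Pre-emerge pots were seeded one day earlier, post-emerge pots 8–21 days earlier. Fourteen days on, each pot was graded 0–100 for damage.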"}, "[15]": {"tested_on": "velvetleaf (Abutilon theophrasti, ABUTH)", "test": "Pre-emerge test, greenhouse herbicide activity screening", "conditions": "pre-emerge, 14 days after application, rating scale 0-100", "in_short": "as §4"}, "[16]": {"tested_on": "barnyardgrass (Echinochloa crus-galli, ECHCG)", "test": "Pre-emerge test, greenhouse herbicide activity screening", "conditions": "pre-emerge, 14 days after application, rating scale 0-100", "in_short": "as §4"}, "[17]": {"tested_on": "sicklepod (Cassia obtusifolia, CASOB)", "test": "Pre-emerge test, greenhouse herbicide activity screening", "conditions": "pre-emerge, 14 days after application, rating scale 0-100", "in_short": "as §4"}, "[18]": {"tested_on": "ivyleaf morningglory (Ipomoea hederacea, IPOHE)", "test": "Pre-emerge test, greenhouse herbicide activity screening", "conditions": "pre-emerge, 14 days after application, rating scale 0-100", "in_short": "as §4"}, "[19]": {"tested_on": "johnsongrass (Sorghum halepense, SORHA)", "test": "Pre-emerge test, greenhouse herbicide activity screening", "conditions": "pre-emerge, 14 days after application, rating scale 0-100", "in_short": "as §4"}, "[20]": {"tested_on": "green foxtail (Setaria viridis, SETVI)", "test": "Pre-emerge test, greenhouse herbicide activity screening", "conditions": "pre-emerge, 14 days after application, rating scale 0-100", "in_short": "as §4"}, "[21]": {"tested_on": "lambsquarters (Chenopodium album, CHEAL)", "test": "Pre-emerge test, greenhouse herbicide activity screening", "conditions": "pre-emerge, 14 days after application, rating scale 0-100", "in_short": "as §4"}, "[22]": {"tested_on": "redroot pigweed (Amaranthus retroflexus, AMARE)", "test": "Pre-emerge test, greenhouse herbicide activity screening", "conditions": "pre-emerge, 14 days after application, rating scale 0-100", "in_short": "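Rating: 0–100 visual injury, 14 DAA. Application: acetone, 187 l/ha, 15–1000 g ai/ha, flat-fan track sprayer with nozzle 40–45 cm above soil or canopy. Post-emerge runs used 0.25% v/v surfactant on 2–3 leaf plants.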"}}}
{"molecule": "COc1c(Cl)cc(F)c(-n2c(=O)cc(C(F)(F)F)n(C)c2=O)c1Sc1ccc2ccccc2c1", "note": "[17-4]", "values": [{"measurement": "Post-emerge Herbicidal Activity RICE (crop damage rating)", "setting": "[1]; 63 g ai/ha", "value": 0}, {"measurement": "Post-emerge Herbicidal Activity RICE (crop damage rating)", "setting": "[1]; 250 g ai/ha", "value": 0}, {"measurement": "Post-emerge Herbicidal Activity CORN (crop damage rating)", "setting": "[2]; 63 g ai/ha", "value": 0}, {"measurement": "Post-emerge Herbicidal Activity CORN (crop damage rating)", "setting": "[2]; 250 g ai/ha", "value": 0}, {"measurement": "phytotoxicity rating RICE", "setting": "[3]; 63 g ai/ha", "value": 0}, {"measurement": "phytotoxicity rating RICE", "setting": "[3]; 250 g ai/ha", "value": 10}, {"measurement": "phytotoxicity rating CORN", "setting": "[4]; 63 g ai/ha", "value": 0}, {"measurement": "phytotoxicity rating CORN", "setting": "[4]; 250 g ai/ha", "value": 0}, {"measurement": "Post-emerge Herbicidal Activity DIGSA (phytotoxicity rating)", "setting": "[5]; 63 g ai/ha", "value": 0}, {"measurement": "Post-emerge Herbicidal Activity DIGSA (phytotoxicity rating)", "setting": "[5]; 250 g ai/ha", "value": 0}, {"measurement": "Post-emerge Herbicidal Activity AMARE (phytotoxicity rating)", "setting": "[6]; 63 g ai/ha, rating scale 0-100 (0 no damage, 100 complete death)", "value": 20}, {"measurement": "Post-emerge Herbicidal Activity AMARE (phytotoxicity rating)", "setting": "[6]; 250 g ai/ha, rating scale 0-100", "value": 70}, {"measurement": "Post-emerge Herbicidal Activity ABUTH (phytotoxicity rating)", "setting": "[7]; 63 g ai/ha", "value": 35}, {"measurement": "Post-emerge Herbicidal Activity ABUTH (phytotoxicity rating)", "setting": "[7]; 250 g ai/ha", "value": 70}, {"measurement": "Post-emerge Herbicidal Activity ECHCG (phytotoxicity rating)", "setting": "[8]; 63 g ai/ha", "value": 0}, {"measurement": "Post-emerge Herbicidal Activity ECHCG (phytotoxicity rating)", "setting": "[8]; 250 g ai/ha", "value": 0}, {"measurement": "Post-emerge Herbicidal Activity CASOB (phytotoxicity rating)", "setting": "[9]; 63 g ai/ha", "value": 10}, {"measurement": "Post-emerge Herbicidal Activity CASOB (phytotoxicity rating)", "setting": "[9]; 250 g ai/ha", "value": 20}, {"measurement": "Post-emerge Herbicidal Activity IPOHE (phytotoxicity rating)", "setting": "[10]; 63 g ai/ha", "value": 20}, {"measurement": "Post-emerge Herbicidal Activity IPOHE (phytotoxicity rating)", "setting": "[10]; 250 g ai/ha", "value": 80}, {"measurement": "Post-emerge Herbicidal Activity SORHA (phytotoxicity rating)", "setting": "[11]; 63 g ai/ha", "value": 0}, {"measurement": "Post-emerge Herbicidal Activity SORHA (phytotoxicity rating)", "setting": "[11]; 250 g ai/ha", "value": 0}, {"measurement": "Post-emerge Herbicidal Activity SETVI (phytotoxicity rating)", "setting": "[12]; 63 g ai/ha", "value": 0}, {"measurement": "Post-emerge Herbicidal Activity SETVI (phytotoxicity rating)", "setting": "[12]; 250 g ai/ha", "value": 0}, {"measurement": "Post-emerge Herbicidal Activity CHEAL (phytotoxicity rating)", "setting": "[13]; 63 g ai/ha", "value": 20}, {"measurement": "Post-emerge Herbicidal Activity CHEAL (phytotoxicity rating)", "setting": "[13]; 250 g ai/ha", "value": 40}, {"measurement": "phytotoxicity rating DIGSA", "setting": "[14]; 63 g ai/ha", "value": 0}, {"measurement": "phytotoxicity rating DIGSA", "setting": "[14]; 250 g ai/ha", "value": 10}, {"measurement": "phytotoxicity rating ABUTH", "setting": "[15]; 63 g ai/ha", "value": 0}, {"measurement": "phytotoxicity rating ABUTH", "setting": "[15]; 250 g ai/ha", "value": 60}, {"measurement": "phytotoxicity rating ECHCG", "setting": "[16]; 63 g ai/ha", "value": 0}, {"measurement": "phytotoxicity rating ECHCG", "setting": "[16]; 250 g ai/ha", "value": 0}, {"measurement": "phytotoxicity rating CASOB", "setting": "[17]; 63 g ai/ha", "value": 0}, {"measurement": "phytotoxicity rating CASOB", "setting": "[17]; 250 g ai/ha", "value": 10}, {"measurement": "phytotoxicity rating IPOHE", "setting": "[18]; 63 g ai/ha", "value": 0}, {"measurement": "phytotoxicity rating IPOHE", "setting": "[18]; 250 g ai/ha", "value": 10}, {"measurement": "phytotoxicity rating SORHA", "setting": "[19]; 63 g ai/ha", "value": 0}, {"measurement": "phytotoxicity rating SORHA", "setting": "[19]; 250 g ai/ha", "value": 0}, {"measurement": "phytotoxicity rating SETVI", "setting": "[20]; 63 g ai/ha", "value": 0}, {"measurement": "phytotoxicity rating SETVI", "setting": "[20]; 250 g ai/ha", "value": 20}, {"measurement": "phytotoxicity rating CHEAL", "setting": "[21]; 63 g ai/ha", "value": 20}, {"measurement": "phytotoxicity rating CHEAL", "setting": "[21]; 250 g ai/ha", "value": 70}, {"measurement": "phytotoxicity rating AMARE", "setting": "[22]; 63 g ai/ha", "value": 30}, {"measurement": "phytotoxicity rating AMARE", "setting": "[22]; 250 g ai/ha", "value": 100}]}
